Data: patent US8293231B2, “Methods and compositions for treating ischemia” (Blue Blood Biotech Corp., priority 2005, dated 2012)

How the values were obtained:
[1] = system: Matrigel plugs in FVB mice; assay: Murine angiogenesis assay (Matrigel plug); assay type: in vivo
Method: To assess angiogenic effects in vivo, growth-factor-reduced liquid Matrigel (0.5 mL) containing heparin (60 U/mL) and various concentrations of TMD23, bFGF or VEGF was subcutaneously injected into FVB mice near the abdominal midline. Matrigel with PBS plus heparin served as the negative control, with bFGF and VEGF plus heparin as the positive control. Four days after injection, mice were sacrificed and Matrigel plugs were surgically removed. For macroscopic analysis of angiogenesis, hemoglobin content in Matrigel was measured using Drabkin reagent 525 (Sigma-Aldrich). For histological analysis, rat anti-mouse CD31 (PECAM-1, platelet endothelial cell adhesion molecule-1) antibody (Pharmingen) was used. The same specimens were used for hematoxylin and eosin (H&E) staining.

HUVECs = assay: In vitro Matrigel angiogenesis assay (tube formation); assay type: cell-based, human
Method: (§1) Growth-factor-reduced Matrigel (BD Biosciences) was thawed at 4° C. A total of 200 μL Matrigel was added to wells of a 48-well plate and polymerized 30 min at 37° C. Two hundred μL cell suspension containing various concentrations of VEGF, TMD23, or TMD23 in the presence of polyclonal rabbit anti-TMD23 antibody (10 μg/mL) or various signaling pathway inhibitors were plated onto Matrigel-coated wells at a density of 2.4×10^4 cells/well in M199 containing 10% FBS for 24 h at 37° C. in a 5% CO2 humidified atmosphere. Each concentration was tested in triplicate in the same plate, with wells photographed using a Leica camera (40× magnification). Tube length was quantified by measuring tubes in five randomly chosen fields from each well using MetaMorph software. Experiments were repeated at least three times.
as §1, with “5° k” for “5%”

[2] = system: MMP-1, MMP-2, MMP-3, and MMP-9 in HUVEC conditioned medium; assay: Gelatin and casein zymographies; assay type: cell-based, human; settings: gelatin zymography
Method: (§2) HUVECs were seeded at 80% confluence on 100-mm dishes in M199 medium. After 24 h, cells were rinsed with serum-free M199 twice and incubated in serum-free M199 with various concentrations of TMD23, VEGF (10 ng/mL), or PMA (70 ng/mL) for 12 h. The conditioned medium containing […] secreted proteins was analyzed by gelatin- and casein-based zymographies. The digested area appeared clear on a blue background, indicating the location of matrix metalloproteinase (MMP) activity. To further verify MMP caseinolytic activity, the casein-containing gel was incubated with incubation buffer containing 10 mM EDTA, an inhibitor of MMPs, to observe disappearance of the clear band. Plasminogen activator inhibitor (PAI) activity was measured by titrating samples with increasing amounts of tissue-type plasminogen activator (t-PA) (Boehringer Ingelheim) into a fixed volume of endothelial-cell-conditioned media.
as §2, with “zymographies. Lee O H, et al., Identification of angiogenic properties of insulin-like growth factor II in in vitro angiogenesis models. Brit J. Cancer. 2000; 82:385-391.” for “zymographies.”, “media. Shi G Y., et al., Plasmin and the regulation of tissue-type plasminogen activator biosynthesis in human endothelial cells. […]” for “media.”

[3] = system: ERK1/2, p38 MAPK, Akt, and eNOS phosphorylation in HUVECs; assay: Assay of ERK1/2, p38 MAPK, Akt and eNOS phosphorylation (Western blotting); assay type: cell-based, human
Method: HUVECs were cultured to confluence in a 6-cm-diameter dish and incubated in M199 containing 1% FBS for 18 h. Cells were washed and incubated with serum-free M199 for 6 h, and treated with the indicated concentration of TMD23. Cell lysates were separated by SDS-PAGE, and the levels of phospho-ERK1/2 (Tyr 204) and total ERK1/2, phospho-p38 (Thr-180/Tyr-182) and p38, phosphor-Akt (Ser-473) and Akt, and phospho-eNOS (Ser-1173) and eNOS were detected by Western blotting with specific antibodies (Cell Signaling Technology).

[4] = system: Matrigel plugs in FVB mice; assay: Murine angiogenesis assay (Matrigel plug); assay type: in vivo; remark: listed apart in the source
[5] = biological target: thrombin-dependent protein C activation (Homo sapiens, UniProt P00734); assay: Thrombomodulin activity assay (cofactor activity for thrombin-dependent protein C activation); assay type: biochemical; settings: on an equal molar basis
Method: (§3) Cofactor activity of TMD2 and TMD23 for thrombin-dependent protein C activation was measured as described previously. Huang H C., et al Thrombomodulin-mediated cell adhesion: Involvement of its lectin-like domain. J Biol. Chem. 2003; 278:46750-46759.
(§4) Cofactor activity of TMD2 and TMD23 for thrombin-dependent protein C activation was measured as described previously. Huang H C., et al Thrombomodulin-mediated cell adhesion: Involvement of its lectin-like domain. J Biol. Chem. 2003; 278: 46750-46759.

[6] = as above; assay type: biochemical
Method: as §3, §4

TMD23: Recombinant human thrombomodulin fragment, amino acids Ala242-Ser515 of SEQ ID NO: 2: six EGF-like structures (D2) plus Ser/Thr-rich domain D3
Induction of in vivo angiogenesis compared with TMD2 ([1]; Matrigel plug assay): more effective than TMD2 | Histology of Matrigel plugs (H&E, anti-mouse CD31) ([1]; TMD23 and heparin): Capillary-like structures were found | Vascularization of Matrigel plugs ([1]; all TMD23 concentrations, plus heparin): Intense vascularization | Appearance of Matrigel plugs, with heparin ([1]; day 4, plus heparin (30 U), TMD23 10, 100, or 1,000 ng, bFGF 250 ng, VEGF 50 ng): bright red | Magnitude of angiogenic reaction with heparin versus without ([1]; gels supplemented with both angiogenic factor and heparin): considerably greater | Hemoglobin content of recovered Matrigel plugs ([1]; plus heparin, compared with controls): significantly increased | HUVEC tube formation on Matrigel (HUVECs; 24 h, VEGF 10 ng/mL, TMD23 5 to 250 ng/mL): formed elongated capillary-like structures, with complete networks | Tubule length per well (HUVECs; FIG. 5G): stimulated tube formation in dose-dependent manner | Expression of MMP-2 and MMP-9 ([2]; 12 h): no significant effect | Expression of MMP-1/3 ([2]; MMP-3 confirmed by caseinolytic zymography): stimulated expression | Time of maximal phosphorylation (ERK, p38, and Akt) ([3]; FIG. 3B): about 30 min | Time of maximal phosphorylation (eNOS) ([3]; FIG. 3B): ~120 min | ERK1/2, p38, Akt, and eNOS phosphorylation in HUVECs ([3]; total proteins remained constant, FIG. 3A): dose-dependently induced | Appearance of Matrigel plugs, without heparin [4]: pale | Cofactor activity higher than that of TMD2 [5]: 25% | Cofactor activity for thrombin-dependent protein C activation [6]: 2,650 pmol of APC formed/min/mg TMD23
